Test results as given in the NIST ThermoML archive (doi:10.1016/j.jct.2006.08.002).

Experiment: xn = mol fraction of the nth substance listed
Conditions: Fluid (supercritical or subcritical phases), Constant-volume piezometry

CCO [ethanol] + O
Conditions | mass density [kg/m3]
598.15 K, 15540 kPa, x1 = 0.2 | 308.36
598.15 K, 15600 kPa, x1 = 0.8 | 243.3
598.15 K, 15640 kPa, x1 = 0.2 | 325.01
598.15 K, 16230 kPa, x1 = 0.8 | 260.09
598.15 K, 16810 kPa, x1 = 0.2 | 420.24
598.15 K, 17080 kPa, x1 = 0.8 | 283.38
598.15 K, 18140 kPa, x1 = 0.8 | 306.39
598.15 K, 18350 kPa, x1 = 0.8 | 311.71
598.15 K, 19160 kPa, x1 = 0.5 | 326.69
598.15 K, 21410 kPa, x1 = 0.8 | 366.53
598.15 K, 21610 kPa, x1 = 0.5 | 384.81
598.15 K, 21850 kPa, x1 = 0.5 | 418.8
598.15 K, 22460 kPa, x1 = 0.8 | 381.79
598.15 K, 24130 kPa, x1 = 0.5 | 420.47
598.15 K, 24210 kPa, x1 = 0.5 | 423.68
598.15 K, 24610 kPa, x1 = 0.8 | 404.76
598.15 K, 27590 kPa, x1 = 0.2 | 547.13
598.15 K, 28350 kPa, x1 = 0.8 | 438.59
598.15 K, 28670 kPa, x1 = 0.5 | 462.7
598.15 K, 38940 kPa, x1 = 0.5 | 520.65
598.15 K, 48240 kPa, x1 = 0.2 | 617.36
598.15 K, 48500 kPa, x1 = 0.5 | 554.28
603.15 K, 10470 kPa, x1 = 0.2 | 67.54
603.15 K, 12120 kPa, x1 = 0.5 | 117.18
603.15 K, 14860 kPa, x1 = 0.5 | 170.89
603.15 K, 16860 kPa, x1 = 0.2 | 350.86
603.15 K, 16940 kPa, x1 = 0.5 | 234.07
603.15 K, 18730 kPa, x1 = 0.5 | 293.15
613.15 K, 23290 kPa, x1 = 0.2 | 452.8
623.15 K, 6210 kPa, x1 = 0.8 | 53.01
623.15 K, 7610 kPa, x1 = 0.5 | 55.79
623.15 K, 9230 kPa, x1 = 0.5 | 69.05
623.15 K, 10590 kPa, x1 = 0.5 | 84.15
623.15 K, 11070 kPa, x1 = 0.8 | 114.64
623.15 K, 13180 kPa, x1 = 0.5 | 117.07
623.15 K, 13400 kPa, x1 = 0.2 | 89.94
623.15 K, 15510 kPa, x1 = 0.8 | 187.93
623.15 K, 16770 kPa, x1 = 0.2 | 137.9
623.15 K, 18300 kPa, x1 = 0.8 | 242.99
623.15 K, 19450 kPa, x1 = 0.2 | 221.42
623.15 K, 20470 kPa, x1 = 0.8 | 283.01
623.15 K, 20590 kPa, x1 = 0.2 | 286.35
623.15 K, 21000 kPa, x1 = 0.2 | 307.94
623.15 K, 21380 kPa, x1 = 0.2 | 324.56
623.15 K, 21860 kPa, x1 = 0.8 | 305.99
623.15 K, 21920 kPa, x1 = 0.2 | 350.47
623.15 K, 22240 kPa, x1 = 0.8 | 311.3
623.15 K, 24920 kPa, x1 = 0.2 | 420.24
623.15 K, 26360 kPa, x1 = 0.8 | 366.04
623.15 K, 27820 kPa, x1 = 0.8 | 381.27
623.15 K, 27940 kPa, x1 = 0.5 | 384.27
623.15 K, 30710 kPa, x1 = 0.8 | 404.2
623.15 K, 31220 kPa, x1 = 0.5 | 418.2
623.15 K, 31480 kPa, x1 = 0.5 | 419.87
623.15 K, 31720 kPa, x1 = 0.5 | 423.08
623.15 K, 36430 kPa, x1 = 0.8 | 444.29
623.15 K, 37340 kPa, x1 = 0.5 | 462.02
623.15 K, 41330 kPa, x1 = 0.2 | 546.22
623.15 K, 50360 kPa, x1 = 0.5 | 519.83
628.15 K, 19790 kPa, x1 = 0.8 | 259.69
628.15 K, 36970 kPa, x1 = 0.8 | 437.84
633.15 K, 11600 kPa, x1 = 0.2 | 67.45
633.15 K, 13740 kPa, x1 = 0.5 | 117.01
633.15 K, 17410 kPa, x1 = 0.5 | 170.64
633.15 K, 23850 kPa, x1 = 0.5 | 292.69
633.15 K, 26000 kPa, x1 = 0.5 | 326.07
638.15 K, 21420 kPa, x1 = 0.5 | 233.65
643.15 K, 35160 kPa, x1 = 0.2 | 451.97
648.15 K, 6600 kPa, x1 = 0.8 | 52.95
648.15 K, 8080 kPa, x1 = 0.5 | 55.72
648.15 K, 9890 kPa, x1 = 0.5 | 68.96
648.15 K, 11430 kPa, x1 = 0.5 | 84.05
648.15 K, 12050 kPa, x1 = 0.8 | 114.5
648.15 K, 14470 kPa, x1 = 0.5 | 116.92
648.15 K, 14680 kPa, x1 = 0.2 | 89.83
648.15 K, 17440 kPa, x1 = 0.8 | 187.69
648.15 K, 19110 kPa, x1 = 0.2 | 137.73
648.15 K, 23400 kPa, x1 = 0.2 | 221.13
648.15 K, 25670 kPa, x1 = 0.8 | 305.59
648.15 K, 25860 kPa, x1 = 0.2 | 285.96
648.15 K, 26120 kPa, x1 = 0.8 | 310.89
648.15 K, 26740 kPa, x1 = 0.2 | 307.52
648.15 K, 28730 kPa, x1 = 0.2 | 349.97
648.15 K, 31420 kPa, x1 = 0.8 | 365.54
648.15 K, 33230 kPa, x1 = 0.8 | 380.75
648.15 K, 33660 kPa, x1 = 0.2 | 420.24
648.15 K, 34330 kPa, x1 = 0.5 | 383.73
648.15 K, 36760 kPa, x1 = 0.8 | 403.64
648.15 K, 39020 kPa, x1 = 0.5 | 419.27
653.15 K, 19550 kPa, x1 = 0.2 | 137.7
653.15 K, 21530 kPa, x1 = 0.8 | 242.62
653.15 K, 22750 kPa, x1 = 0.8 | 259.36
653.15 K, 24460 kPa, x1 = 0.8 | 282.58
653.15 K, 26990 kPa, x1 = 0.8 | 310.81
653.15 K, 28660 kPa, x1 = 0.2 | 324.03
653.15 K, 34300 kPa, x1 = 0.8 | 380.65
653.15 K, 35620 kPa, x1 = 0.5 | 383.63
653.15 K, 40110 kPa, x1 = 0.5 | 417.48
653.15 K, 40890 kPa, x1 = 0.5 | 422.34
653.15 K, 44100 kPa, x1 = 0.8 | 437.21
653.15 K, 48080 kPa, x1 = 0.5 | 461.19
673.15 K, 6990 kPa, x1 = 0.8 | 52.89
673.15 K, 8570 kPa, x1 = 0.5 | 55.65
673.15 K, 10540 kPa, x1 = 0.5 | 68.88
673.15 K, 12250 kPa, x1 = 0.5 | 83.95
673.15 K, 12980 kPa, x1 = 0.2 | 67.32
673.15 K, 13010 kPa, x1 = 0.8 | 114.36
673.15 K, 15740 kPa, x1 = 0.5 | 116.78
673.15 K, 15940 kPa, x1 = 0.2 | 89.72
673.15 K, 19310 kPa, x1 = 0.8 | 187.46
673.15 K, 20680 kPa, x1 = 0.5 | 170.3
673.15 K, 21310 kPa, x1 = 0.2 | 137.56
673.15 K, 23620 kPa, x1 = 0.8 | 242.38
673.15 K, 25130 kPa, x1 = 0.8 | 259.1
673.15 K, 25740 kPa, x1 = 0.5 | 233.23
673.15 K, 27230 kPa, x1 = 0.8 | 282.28
673.15 K, 27430 kPa, x1 = 0.2 | 220.84
673.15 K, 29500 kPa, x1 = 0.8 | 305.19
673.15 K, 30040 kPa, x1 = 0.8 | 310.49
673.15 K, 30620 kPa, x1 = 0.5 | 292.07
673.15 K, 31230 kPa, x1 = 0.2 | 285.57
673.15 K, 32510 kPa, x1 = 0.2 | 307.09
673.15 K, 33730 kPa, x1 = 0.2 | 323.66
673.15 K, 34050 kPa, x1 = 0.5 | 325.37
673.15 K, 35510 kPa, x1 = 0.2 | 349.48
673.15 K, 36420 kPa, x1 = 0.8 | 365.05
673.15 K, 38700 kPa, x1 = 0.8 | 380.23
673.15 K, 40850 kPa, x1 = 0.5 | 383.2
673.15 K, 42660 kPa, x1 = 0.2 | 420.24
673.15 K, 42950 kPa, x1 = 0.8 | 403.08
673.15 K, 46620 kPa, x1 = 0.5 | 418.66
673.15 K, 47140 kPa, x1 = 0.2 | 451.15
